What is called inhibition is the drop in the measured response relative to a control, in per cent.

The target in the experiment is T1, Monocarboxylate transporter 1 (Rattus norvegicus) (UniProt P53987).
T1 sequence (whole entry): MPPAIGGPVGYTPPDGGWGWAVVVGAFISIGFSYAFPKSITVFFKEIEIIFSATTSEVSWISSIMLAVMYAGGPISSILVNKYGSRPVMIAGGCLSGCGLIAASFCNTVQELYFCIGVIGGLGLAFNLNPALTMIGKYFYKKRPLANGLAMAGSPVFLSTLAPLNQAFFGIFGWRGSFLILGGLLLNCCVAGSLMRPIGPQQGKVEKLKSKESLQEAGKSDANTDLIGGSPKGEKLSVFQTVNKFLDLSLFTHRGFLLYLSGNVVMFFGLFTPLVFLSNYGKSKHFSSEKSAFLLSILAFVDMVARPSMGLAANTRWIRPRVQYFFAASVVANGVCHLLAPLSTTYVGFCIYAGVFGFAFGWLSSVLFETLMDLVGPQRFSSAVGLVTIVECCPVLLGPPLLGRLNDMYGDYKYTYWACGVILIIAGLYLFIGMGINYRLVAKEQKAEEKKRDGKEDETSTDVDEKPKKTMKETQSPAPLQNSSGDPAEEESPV
The experiment is described as follows: Inhibition of rat MCT1 expressed in human MDA-MB-231 cells in presence of [3H]-GHB by liquid scintillation spectroscopy analysis. In kind it is cell-based. Also noted: concentration or dose not given beside the values. The settings on record: concentration not given here.

Take `COc1ccc(-c2cc(=O)c3c(O)cc(O)cc3o2)cc1O`: the inhibition was found to be 49%.

Regarding `O=c1cc(-c2ccc(O)cc2)oc2cc(O)cc(O)c12`, the inhibition was found to be 50%.

For the molecule `O=c1c(O)c(-c2ccc(O)c(O)c2)oc2cc(O)cc(O)c12`, the inhibition came to 87%.

As to `O=c1c(O)c(-c2ccc(O)c(O)c2)oc2cc(O)ccc12`, the inhibition was found to be 93%.

In the case of `O=c1c(O)c(-c2ccc(O)cc2O)oc2cc(O)cc(O)c12`, the inhibition was determined as 100%.

Regarding `O=c1cc(-c2ccc(O)c(O)c2)oc2cc(O)cc(O)c12`, the inhibition is 100%.

These data come from ChEMBL document CHEMBL5233245, “Monocarboxylate transporter 1 and 4 inhibitors as potential therapeutics for treating solid tumours: A review with structure-activity relationship insights” (Eur J Med Chem, 2020).
